Results on three compounds are retold here after publication PMC8838850, “Synthesis, Antimicrobial, Anti-Virulence and Anticancer Evaluation of New 5(4H)-Oxazolone-Based Sulfonamides” (Molecules, 2022).

Converted amounts (≈) assume the structure as drawn.

Assay [1] deals with S. aureus. The assay is described as follows: Assay of hemolytic activity. The class given is cell-based, Staphylococcus aureus. The note with it: sub-MIC. As to the method: (§1) The anti-virulence effects of compounds 5, 7 and 10 on hemolytic activity of tested P. aeruginosa and S. aureus strains were assessed as described previously. Optically adjusted bacterial cultures treated or untreated with tested compounds at sub-MIC were centrifuged, and 0.5 mL of supernatants were mixed with fresh 0.8 mL 2% erythrocyte (obtained from experimental animals) suspension in saline, and incubated for 2 h at 37 °C. A complete hemolysis positive control was prepared by addition of sodium dodecyl sulphate (SDS) to erythrocyte suspension, and negative control was prepared by incubation of erythrocytes in LB broth under the same conditions. After centrifugation, the absorbances of the lysed erythrocytes were measured at 540 nm by Biotek spectrofluorometer (Biotek, Winooski, VT, USA). The experiment was performed in triplicate, and the hemolysis of tested compound treated cultures were expressed as mean ± standard error of percentages compared with those obtained from untreated control cultures using the formula: (absorbance in presence or absence of tested compounds—absorbance of negative control)/(absorbance of positive control—absorbance of negative control).

Assay [2] has as its system Klebsiella pneumoniae ATCC 27736. The assay is described as follows: MIC by agar dilution. As to conditions: ATCC27736, 37 °C, 20 h, read-out: Minimum inhibitory concentration (MIC). The class given is cell-based. As to the method:
(§2) The MICs of the synthesized compound were determined by agar dilution method according to the Clinical Laboratory and Standards Institute Guidelines (CLSI, 2015). Briefly, the tested strains were incubated overnight in tryptic soy broth (TSB) (Oxoid, United Kingdom) and then diluted in Muller–Hinton (MH) broth (Oxoid, United Kingdom) to turbidity approximating to the equivalent of 0.5 McFarland standard. The suspensions were further diluted with sterile saline (1:10) and standardized inoculums (approximately 10^4 CFU per spot) were spotted on the surfaces of MH agar (Oxoid, United Kingdom) plates containing different concentrations of tested compounds and a control plate. The MICs were the lowest concentrations that inhibit growth on the plates after incubation at 37 °C for 20 h.

Assay [3] deals with Escherichia coli ATCC 10536. The assay is described as follows: MIC by agar dilution. The note with it: ATCC10536, 37 °C, 20 h, read-out: Minimum inhibitory concentration (MIC). The format is cell-based. As to the method: as §2
Background: Agar dilution tests growth on a series of plates holding different concentrations.

The subject of assay [4] is Salmonella typhimurium ATCC 14028. The assay is described as follows: MIC by agar dilution. The format is cell-based. As to conditions: Salmonella enterica, 37 °C, 20 h, read-out: Minimum inhibitory concentration (MIC). As to the method:
as §2

For assay [5], the system named is Staphylococcus epidermidis ATCC 12228. The assay is described as follows: MIC by agar dilution. The format is cell-based. As to conditions: ATCC12228, 37 °C, 20 h, read-out: Minimum inhibitory concentration (MIC). As to the method: as §2
Assay [6] concerns Staphylococcus aureus ATCC 6538. Description: MIC by agar dilution. The format is cell-based. As to conditions: ATCC6538, 37 °C, 20 h, read-out: Minimum inhibitory concentration (MIC). As to the method:
as §2

Assay [7] deals with Micrococcus spp. ATCC 10240. Description: MIC by agar dilution. The class given is cell-based. The note with it: ATCC10240, 37 °C, 20 h, read-out: Minimum inhibitory concentration (MIC). As to the method:
as §2

Assay [8] concerns P. aeruginosa. The assay is described as follows: Assay of hemolytic activity. The class given is cell-based, Pseudomonas aeruginosa. The note with it: sub-MIC. As to the method: as §1
Assay [9] has as its system Pseudomonas aeruginosae ATCC 47085. Description: MIC by agar dilution. The format is cell-based, Pseudomonas aeruginosa. As to conditions: ATCC47085, 37 °C, 20 h, read-out: Minimum inhibitory concentration (MIC). As to the method:
as §2

Assay [10] has as its system Candida albicans ATCC 10231. The assay is described as follows: MIC by agar dilution (antifungal). The class given is cell-based. As to conditions: Candida albicans, ATCC10231, Candida albicans ATCC 10231, read-out: Minimum inhibitory concentration (MIC). As to the method: as §2
The test system of assay [11] is Aspergillus niger ATCC 16404. Description: MIC by agar dilution (antifungal). The note with it: ATCC16404, read-out: Minimum inhibitory concentration (MIC). The class given is cell-based. As to the method:
as §2

Assay [12] concerns S. aureus. The assay is described as follows: Assay of protease production (casein substrate). The class given is cell-based, Staphylococcus aureus. The note with it: sub-MIC. As to the method: The effect of compounds 5, 7 and 10 on the production of protease was evaluated using casein substrate as described earlier. Briefly, overnight cultures of P. aeruginosa and S. aureus were cultivated in LB broth in the presence or absence of compounds 5, 7 and 10 at ½ MIC for 24 h at 37 °C. The supernatants were collected, mixed (1:1) with 0.05 M casein in phosphate buffer (2%) and NaOH (0.1 M) at pH 7.0, and incubated for 15 min at 37 °C. The reaction was stopped by adding 2 mL of 0.4 M trichloroacetic acid for 30 min at 25 °C. Any precipitates were removed, and the optical densities were detected at 660 nm. The assays were performed in triplicate and the obtained optical densities of tested strains treated with compounds 5, 7 and 10 were expressed as mean ± standard error of percentage change from untreated tested strains control (positive control) and LB (negative control). The protease inhibition percentages were calculated: (O.D control—O.D tested compounds)/O.D control.

For assay [13], the system named is P. aeruginosa. Description: Quantification of pyocyanin pigment. The class given is cell-based, Pseudomonas aeruginosa. The note with it: sub-MIC. As to the method:
The ability of selected compounds 5, 7 and 10 at sub-MIC to reduce the P. aeruginosa pyocyanin pigment production was estimated as described earlier. P. aeruginosa overnight cultures were prepared and diluted in LB broth at 600 nm (O.D0.4), and 10 μL of the bacterial suspensions were added to 1mL broth tubes containing, or not, tested drugs at sub-MIC. After incubation for 48 h at 37 °C, the tubes were centrifuged and the pyocyanin in the supernatant was assayed spectrophotometrically at 691 nm by a Biotek spectrofluorometer (Biotek, Winooski, VT, USA). The experiment was repeated in triplicate, and the pyocyanin absorbances in the presence of tested compounds were expressed as mean ± standard error of percentage change from untreated controls. The percentages of pigment production were calculated using the formula: (absorbance of control − absorbance in presence of tested compounds)/absorbance of control.

`Cc1ccc(S(=O)(=O)Nc2ccccc2C2=N/C(=C/c3ccccc3)C(=O)O2)cc1` [Compound 9a, (E)-N-(2-(4-Benzylidene-5-oxo-4,5-dihydrooxazol-2-yl)phenyl)-4-methylbenzenesulfonamide]: the Hemolytic activity entry in assay [1] and in assay [8] was “significantly diminished the hemolytic activity” in each case. Further, the MIC in [2] amounted to 4 µg/mL (≈ 9.56 µM); in assay [3], 2 µg/mL (≈ 4.78 µM); in assay [4], 4 µg/mL (≈ 9.56 µM); in assay [5], 4 µg/mL (≈ 9.56 µM); in assay [6] it was 4 µg/mL (≈ 9.56 µM); in assay [7] it was 4 µg/mL (≈ 9.56 µM). Besides, the MIC turned out to be 8 µg/mL (≈ 19.1 µM) in assay [9], 16 µg/mL (≈ 38.2 µM) in assay [10] and 32 µg/mL (≈ 76.5 µM) in [11]. Also, the Production of protease result in assay [12] was “significantly reduced the production of protease”. Besides, the “Production of pigment pyocyanin” value in assay [13] was “significantly decreased the production”.
Take `COc1ccc(/C=C2/N=C(c3ccccc3NS(=O)(=O)c3ccc(C)cc3)OC2=O)cc1` [Compound 9b, (E)-N-(2-(4-(4-Methoxybenzylidene)-5-oxo-4,5-dihydrooxazol-2-yl)phenyl)-4-methylbenzenesulfonamide]: the Hemolytic activity entry in assay [1] and in assay [8] was “significantly diminished the hemolytic activity” each time. Moreover, the MIC in [2] was 4 µg/mL (≈ 8.92 µM); in assay [3] it was 2 µg/mL (≈ 4.46 µM); in assay [4] it was 4 µg/mL (≈ 8.92 µM); in assay [5], 1 µg/mL (≈ 2.23 µM); in assay [6], 2 µg/mL (≈ 4.46 µM); in assay [7], 1 µg/mL (≈ 2.23 µM). In addition, the MIC in [9] was 4 µg/mL (≈ 8.92 µM); in assay [10] it was above 32 µg/mL; in [11] it was above 32 µg/mL. The Production of protease entry in assay [12] is recorded as “significantly reduced the production of protease”. Moreover, the “Production of pigment pyocyanin” value in assay [13] is recorded as “significantly decreased the production”.
For `Cc1ccc(S(=O)(=O)Nc2ccccc2C2=N/C(=C/c3ccc([N+](=O)[O-])cc3)C(=O)O2)cc1` [Compound 9f, (E)-4-Methyl-N-(2-(4-(4-nitrobenzylidene)-5-oxo-4,5-dihydrooxazol-2-yl)phenyl)benzenesulfonamide], the Hemolytic activity entry in assay [1] and in [8] was “significantly diminished the hemolytic activity” in each case. Moreover, the MIC in [2] came to 2 µg/mL (≈ 4.32 µM); in assay [3] it was 4 µg/mL (≈ 8.63 µM); in [4], 2 µg/mL (≈ 4.32 µM); in assay [5], 2 µg/mL (≈ 4.32 µM); in assay [6], 2 µg/mL (≈ 4.32 µM); in assay [7], 2 µg/mL (≈ 4.32 µM). Also, the figures for the MIC in assay [9], in assay [10] and in assay [11] were 4 µg/mL (≈ 8.63 µM), above 32 µg/mL and above 32 µg/mL, respectively. In [12], the Production of protease result is recorded as “significantly reduced the production of protease”. In addition, the “Production of pigment pyocyanin” value in assay [13] was “significantly decreased the production”.
